Reference: patent publication US10017459B2, “β-substituted β-amino acids and analogs as chemotherapeutic agents and uses thereof” (Quadriga Biosciences, Inc., priority 2015, dated 2018)
Read-outs that look alike come from different tables or passages of the source. One block for each molecule: values may come before it.

Experiments:
hLAT2 = molecular target: T1, hLAT2 (Homo sapiens, UniProt Q9UHI5); experiment: LAT2 uptake inhibition assay, radiolabeled competition uptake with [3H]-leucine; assay type: cell-based
T1 construct: expressed in transfected cells; host or cells: KB or LLCPK cells, tetracycline/doxycycline-inducible
T1 sequence (Q9UHI5 1-535): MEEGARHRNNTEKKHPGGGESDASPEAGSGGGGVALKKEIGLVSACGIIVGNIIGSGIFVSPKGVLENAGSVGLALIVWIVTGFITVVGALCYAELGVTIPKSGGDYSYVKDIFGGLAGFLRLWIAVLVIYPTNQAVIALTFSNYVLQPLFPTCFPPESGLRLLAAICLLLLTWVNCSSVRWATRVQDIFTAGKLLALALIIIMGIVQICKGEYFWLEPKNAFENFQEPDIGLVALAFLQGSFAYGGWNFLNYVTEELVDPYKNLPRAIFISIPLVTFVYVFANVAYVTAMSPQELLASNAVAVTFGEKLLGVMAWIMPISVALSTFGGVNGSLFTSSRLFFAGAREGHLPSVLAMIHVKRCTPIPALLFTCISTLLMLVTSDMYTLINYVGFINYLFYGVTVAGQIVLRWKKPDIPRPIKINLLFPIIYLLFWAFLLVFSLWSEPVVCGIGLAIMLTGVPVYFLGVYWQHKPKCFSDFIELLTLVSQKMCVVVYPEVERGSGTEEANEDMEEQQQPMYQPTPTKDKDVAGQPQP
T1 sequence (P08195 1-630 isoform P08195-1 partner): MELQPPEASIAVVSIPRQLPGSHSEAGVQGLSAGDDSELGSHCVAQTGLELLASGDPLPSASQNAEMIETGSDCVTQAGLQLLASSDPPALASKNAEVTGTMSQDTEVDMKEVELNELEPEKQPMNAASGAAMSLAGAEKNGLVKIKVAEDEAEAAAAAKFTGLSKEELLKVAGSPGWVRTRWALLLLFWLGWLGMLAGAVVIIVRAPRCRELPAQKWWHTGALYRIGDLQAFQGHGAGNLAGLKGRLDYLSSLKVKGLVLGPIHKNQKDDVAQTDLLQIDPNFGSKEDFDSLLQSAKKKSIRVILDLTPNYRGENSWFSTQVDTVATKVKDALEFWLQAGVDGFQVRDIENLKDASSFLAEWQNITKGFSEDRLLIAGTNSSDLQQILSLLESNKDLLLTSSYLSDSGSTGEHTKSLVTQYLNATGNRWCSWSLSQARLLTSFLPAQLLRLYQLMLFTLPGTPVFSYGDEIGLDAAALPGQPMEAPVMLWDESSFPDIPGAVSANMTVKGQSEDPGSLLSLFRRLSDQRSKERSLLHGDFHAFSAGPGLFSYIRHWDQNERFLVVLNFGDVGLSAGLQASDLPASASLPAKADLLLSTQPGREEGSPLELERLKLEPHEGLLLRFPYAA

hLAT1 = molecular target: T2, hLAT1 (Homo sapiens, UniProt Q01650); experiment: LAT1 uptake inhibition assay, radiolabeled competition uptake with [3H]-Gabapentin; assay type: cell-based
T2 construct: expressed in transfected cells; host or cells: LLCPK cells, tetracycline/doxycycline-inducible, boosted with sodium butyrate
T2 sequence (Q01650 whole entry, one chain of several): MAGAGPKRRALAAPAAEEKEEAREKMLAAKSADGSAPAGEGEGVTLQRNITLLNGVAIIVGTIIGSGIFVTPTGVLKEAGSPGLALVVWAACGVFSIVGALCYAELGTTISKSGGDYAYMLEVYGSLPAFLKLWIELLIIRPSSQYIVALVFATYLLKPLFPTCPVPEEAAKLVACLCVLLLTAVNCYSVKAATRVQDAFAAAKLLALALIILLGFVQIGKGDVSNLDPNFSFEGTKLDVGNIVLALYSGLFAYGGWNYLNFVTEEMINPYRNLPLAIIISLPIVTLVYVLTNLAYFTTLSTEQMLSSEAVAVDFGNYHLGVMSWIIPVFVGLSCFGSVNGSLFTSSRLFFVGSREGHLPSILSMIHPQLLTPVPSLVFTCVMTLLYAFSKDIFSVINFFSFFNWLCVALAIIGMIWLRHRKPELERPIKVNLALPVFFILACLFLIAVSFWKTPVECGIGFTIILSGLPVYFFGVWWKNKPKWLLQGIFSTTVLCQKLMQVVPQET

[1] = system: LLCPK cells conditionally expressing hLAT1; experiment: cells; conditions: 0.5 h, read-out: LC50, concentration of test compound at which the percent surviving cells was 50%
42MGBA = experiment: cells; assay type: cell-based; conditions: read-out: IC50 (in vitro toxicity)
MCF7 = experiment: In vitro cytotoxicity, MCF7; assay type: cell-based; conditions: Homo sapiens, MCF7, read-out: IC50 (in vitro toxicity)
MDA-MB-231 = experiment: cells; assay type: cell-based; conditions: Homo sapiens, MDA-MB-231, read-out: IC50 (in vitro toxicity)
D283 = experiment: cells; assay type: cell-based; conditions: D283, read-out: IC50 (in vitro toxicity)
[2] = system: Human prostate cancer PC3 cells; conditions: mouse, in vivo
PC3 = experiment: cells; assay type: cell-based; conditions: Homo sapiens, PC-3, read-out: IC50 (in vitro toxicity)
HCT116 = experiment: In vitro cytotoxicity, HCT116; assay type: cell-based; conditions: Homo sapiens, HCT-116, read-out: IC50 (in vitro toxicity)
DBRTG = experiment: cells; assay type: cell-based; conditions: read-out: IC50 (in vitro toxicity)
U251 MG = experiment: Orthotopic glioblastoma study (Example 84); assay type: in vivo, mouse; conditions: at a dose of 10 mg/kg, IV
Method: The efficacy of compounds provided by the present disclosure was evaluated using an orthotopic luciferase human glioblastoma model—U251 MG. Human glioblastoma cells were intracolonically injected (3×10^5 cells/3 μL) into athymic mice (female, 4-5 weeks-old, nu/un homozygous). Treatment began when the BLI reached a log-phase growth, at about 14 days after injection. Ten mice were assigned to each arm of the study. The mice were dosed with vehicle (IP, once weekly for 4 weeks), compound (5) (5 mg/kg, IV once weekly for 4 weeks), compound (5) (10 mg/kg, IV once weekly for 4 weeks), compound (40) (10 mg/kg, IV once weekly for 4 weeks), or compound (50) (20 mg/kg, IV single dose). The tumor volume was measured using bioluminescence imaging.

LN229 = experiment: cells; assay type: cell-based; conditions: Homo sapiens, LN-229, read-out: IC50 (in vitro toxicity)
G55 = experiment: cells; assay type: cell-based; conditions: read-out: IC50 (in vitro toxicity)
MV411 = experiment: cells; assay type: cell-based; conditions: Homo sapiens, MV4-11, read-out: IC50 (in vitro toxicity)
Raji = experiment: cells; assay type: cell-based; conditions: Homo sapiens, read-out: IC50 (in vitro toxicity)
U251 = experiment: cells; assay type: cell-based; conditions: Homo sapiens, U-251, read-out: IC50 (in vitro toxicity)
794 = experiment: cells; assay type: cell-based; conditions: read-out: IC50 (in vitro toxicity)
[3] = KB cells, read-out: IC50, concentration of test compound at which the [3H]-Leu was inhibited by 50%
[4] = LAT1-expressing cells, increasing concentration of test compound, read-out: IC50, concentration of test compound at which the [3H]-GP was inhibited by 50%

Structure (SMILES): Cc1ccc(CON(CCCl)CCCl)cc1C[C@H](N)CC(=O)O [Compound 32, (3S)-3-Amino-4-[5-[bis(2-chloroethyl)aminooxymethyl]-2-methyl-phenyl]butanoic Acid]
- IC50 (hLAT2): < 100 µM
- IC50 (hLAT1): < 100 µM

Structure (SMILES): N[C@@H](COc1cccc(N(CCCl)CCCl)c1)CC(=O)O [Compound 68, (3R)-3-amino-4-[3-[bis(2-chloroethyl)amino]phenoxy]butanoic acid]
- IC50 (hLAT1): < 100 µM

Structure (SMILES): COc1ccc(N(CCO)CCCl)cc1C[C@H](N)CC(=O)O [Compound 60, (3S)-3-amino-4-[5-(2-chloroethyl (2-hydroxyethyl)amino)-2-methoxy-phenyl]butanoic acid]
- IC50 (hLAT2): < 100 µM
- IC50 (hLAT1): < 100 µM

Structure (SMILES): Cc1ccc(N(CCCl)CCCl)cc1CC(N)CC(=O)O (racemic) [Compound 3, 3-Amino-4-[5-[bis(2-chloroethyl)amino]-2-methyl-phenyl]butanoic Acid]
- CC50 [1]: < 1 µM

Structure (SMILES): N[C@@H](COc1ccc(N(CCCl)CCCl)cc1)CC(=O)O [Compound 69, (3R)-3-amino-4-[4-[bis(2-chloroethyl)amino]phenoxy]butanoic acid]
- IC50 (hLAT1): < 100 µM

- IC50 (hLAT2; [3]): < 100 µM
- IC50 (hLAT1; [4]): < 100 µM
Structure (SMILES): Cc1ccc(C(=O)N[C@@H](CC(C)C)C(=O)C2(C)CO2)cc1C[C@H](N)CC(=O)O (stereo in doubt) [Compound 63, (3S)-3-amino-4-[2-methyl-5-[[(1S)-3-methyl-1-[(2R)-2-methyloxirane-2-carbonyl]butyl]carbamoyl]phenyl]butanoic acid]

Structure (SMILES): Cc1ccc(COC(=O)N(CCCl)CCCl)cc1C[C@H](N)CC(=O)O [Compound 30, (3S)-3-Amino-4-[5-[bis(2-chloroethyl)carbamoyloxymethyl]-2-methyl-phenyl]butanoic Acid]
- IC50 (hLAT1): < 100 µM

Structure (SMILES): CCc1ccc(N(CCCl)CCCl)cc1C[C@H](N)CC(=O)O [Compound 40, (3S)-3-amino-4-[5-[bis(2-chloroethyl)amino]-2-ethyl-phenyl]butanoic acid]
- IC50 (42MGBA): < 100 µM
- IC50 (MCF7): < 100 µM
- IC50 (MDA-MB-231): < 100 µM
- IC50 (hLAT2): < 100 µM
- CC50 [1]: < 1 µM
- IC50 (D283): < 100 µM
- IC50 (hLAT1): < 100 µM
- body weight [2]: maintained weight
- myelosuppression [2]: not dectected
- tumor growth suppression [2]: dose-dependent tumor growth suppression
- IC50 (PC3): < 100 µM
- IC50 (HCT116): < 100 µM
- IC50 (DBRTG): < 100 µM
- glioblastoma tumor growth (bioluminescence imaging) (U251 MG): suppressed glioblastoma tumor growth
- IC50 (LN229): < 100 µM
- IC50 (G55): < 100 µM
- IC50 (MV411): < 100 µM
- IC50 (Raji): < 100 µM
- IC50 (U251): < 100 µM

Structure (SMILES): Cc1cc(N(CCCl)CCCl)ccc1OC[C@H](N)CC(=O)O [Compound 27, (3R)-3-Amino-4-[4-[bis(2-chloroethyl)amino]-2-methyl-phenoxy]butanoic Acid]
- CC50 [1]: < 1 µM

Structure (SMILES): Cc1ccc(OC(=O)N(CCCl)CCCl)cc1C[C@H](N)CC(=O)O [Compound 29, (3S)-3-Amino-4-[5-[bis(2-chloroethyl)carbamoyloxy]-2-methyl-phenyl]butanoic Acid]
- IC50 (hLAT1): < 100 µM

Structure (SMILES): CC(C)Oc1ccc(N(CCCl)CCCl)cc1C[C@H](N)CC(=O)O [Compound 43, (3S)-3-amino-4-[5-[bis(2-chloroethyl)amino]-2-isopropoxy-phenyl]butanoic acid]
- IC50 (hLAT2): < 100 µM
- CC50 [1]: < 1 µM
- IC50 (hLAT1): < 100 µM

Structure (SMILES): Cc1ccc(N(CCCl)CCCl)c(C[C@H](N)CC(=O)O)c1 [Compound 50, (3S)-3-amino-4-[2-[bis(2-chloroethyl)amino]-5-methyl-phenyl]butanoic acid]
- IC50 (42MGBA): < 100 µM
- IC50 (MCF7): < 100 µM
- IC50 (MDA-MB-231): < 100 µM
- IC50 (hLAT2): < 100 µM
- IC50 (D283): < 100 µM
- IC50 794: < 100 µM
- IC50 (PC3): < 100 µM
- IC50 (HCT116): < 100 µM
- IC50 (DBRTG): < 100 µM
- glioblastoma tumor growth (bioluminescence imaging) (U251 MG): suppressed glioblastoma tumor growth
- IC50 (LN229): < 100 µM
- IC50 (G55): < 100 µM
- IC50 (MV411): < 100 µM
- IC50 (Raji): < 100 µM
- IC50 (U251): < 100 µM

Structure (SMILES): N[C@H](CC(=O)O)Cc1cc(N(CCCl)CCCl)ccc1N(CCCl)CCCl [Compound 53, (3S)-3-amino-4-[2,5-bis[bis(2-chloroethyl)amino]phenyl]butanoic acid]
- IC50 (hLAT2): < 100 µM
- CC50 [1]: < 1 µM

Structure (SMILES): Cc1ccc(NCCCl)cc1C[C@H](N)CC(=O)O [Compound 54, (3S)-3-amino-4-[5-(2-chloroethylamino]-2-methyl-phenyl]butanoic acid]
- IC50 (hLAT2): < 100 µM

Structure (SMILES): Cc1ccc(N(CCBr)CCOS(C)(=O)=O)cc1C[C@H](N)CC(=O)O [Compound 20, (3S)-3-Amino-4-[5-(2-bromoethyl(2-methylsulfonyloxyethyl)amino)-2-methyl-phenyl]butanoic Acid]
- IC50 (hLAT2): < 100 µM

Structure (SMILES): N[C@H](CC(=O)O)Cc1cc(CON(CCCl)CCCl)ccc1[N+](=O)[O-] [Compound 45, (3S)-3-amino-4-[5-[bis(2-chloroethyl)aminooxymethyl]-2-nitro-phenyl]butanoic acid]
- IC50 (hLAT2): < 100 µM
- IC50 (hLAT1): < 100 µM

Structure (SMILES): CCOc1ccc(N(CCCl)CCCl)cc1C[C@H](N)CC(=O)O [Compound 42, (3S)-3-amino-4-[5-[bis(2-chloroethyl)amino]-2-ethoxy-phenyl]butanoic acid]
- IC50 (hLAT2): < 100 µM
- CC50 [1]: < 1 µM
- IC50 (hLAT1): < 100 µM

Structure (SMILES): Cc1ccc(N(CCCl)CCCl)cc1NC(=O)[C@H](N)CC(=O)O [Compound 22, (3R)-3-Amino-4-[[5-[bis(2-chloroethyl)amino]-2-methyl-phenyl]amino]-4-oxo-butanoic Acid]
- IC50 (hLAT2): < 100 µM
- CC50 [1]: < 1 µM

- IC50 (hLAT2; [3]): < 100 µM
- IC50 (hLAT1; [4]): < 100 µM
Structure (SMILES): Cc1ccc(CBr)cc1C[C@H](N)CC(=O)O [Compound 57, (3S)-3-amino-4-[5-(bromomethyl)-2-methyl-phenyl]butanoic acid]

Structure (SMILES): N[C@H](CC(=O)O)Cc1cc(CO)ccc1N(CCCl)CCCl [Compound 52, (3S)-3-amino-4-[2-[bis(2-chloroethyl)amino]-5-(hydroxymethyl)phenyl]butanoic acid]
- IC50 (hLAT2): < 100 µM
- CC50 [1]: < 1 µM

Structure (SMILES): Cc1ccc(N(CCO)CCCl)cc1C[C@H](N)CC(=O)O [Compound 58, (3S)-3-amino-4-[5-(2-chloroethyl(2-hydroxyethyl)amino)-2-methyl-phenyl]butanoic acid]
- IC50 (hLAT1): < 100 µM
